Earlier results in patent US10639299B2, “Calcium sensing receptors, ligands, compositions, and methods of use” (Georgia State University Research Foundation, Inc., priority 2016, dated 2020).

Experiments:
CaSR [1] = biological target: T1, CaSR (Homo sapiens, UniProt P41180); set-up: host or cells: HEK cells, transient; conditions: HEK cells, in the presence of 150 mM NaCl; read-out: EC50 for intracellular calcium responses; cited from earlier work
T1 sequence (P41180 20-1078): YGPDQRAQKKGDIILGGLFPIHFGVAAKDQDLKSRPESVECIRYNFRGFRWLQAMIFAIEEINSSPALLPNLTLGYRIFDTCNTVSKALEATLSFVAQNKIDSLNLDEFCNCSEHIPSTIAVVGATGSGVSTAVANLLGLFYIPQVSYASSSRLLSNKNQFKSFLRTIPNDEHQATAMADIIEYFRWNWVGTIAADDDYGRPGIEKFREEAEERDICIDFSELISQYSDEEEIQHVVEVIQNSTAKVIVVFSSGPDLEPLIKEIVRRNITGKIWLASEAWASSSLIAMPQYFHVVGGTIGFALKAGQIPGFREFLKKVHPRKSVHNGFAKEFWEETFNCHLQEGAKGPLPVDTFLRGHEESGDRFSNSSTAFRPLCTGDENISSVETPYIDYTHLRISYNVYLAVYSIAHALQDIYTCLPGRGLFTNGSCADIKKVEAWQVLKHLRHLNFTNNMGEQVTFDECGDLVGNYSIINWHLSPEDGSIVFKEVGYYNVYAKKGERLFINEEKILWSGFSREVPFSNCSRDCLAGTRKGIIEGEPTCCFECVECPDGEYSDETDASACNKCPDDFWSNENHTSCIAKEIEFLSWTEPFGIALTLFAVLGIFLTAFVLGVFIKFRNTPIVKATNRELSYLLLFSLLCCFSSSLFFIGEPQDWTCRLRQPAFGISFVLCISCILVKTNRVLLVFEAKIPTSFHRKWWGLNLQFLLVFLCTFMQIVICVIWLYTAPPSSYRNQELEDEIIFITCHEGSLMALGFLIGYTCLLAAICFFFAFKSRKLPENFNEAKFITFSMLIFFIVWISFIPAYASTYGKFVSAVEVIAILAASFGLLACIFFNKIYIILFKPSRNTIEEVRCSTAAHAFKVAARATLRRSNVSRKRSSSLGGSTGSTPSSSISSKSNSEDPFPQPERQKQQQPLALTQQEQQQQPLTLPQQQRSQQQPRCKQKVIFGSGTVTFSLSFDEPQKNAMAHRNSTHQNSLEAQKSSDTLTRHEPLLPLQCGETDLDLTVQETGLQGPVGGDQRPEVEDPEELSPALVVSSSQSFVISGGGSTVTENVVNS

rat CaSR = biological target: T2, rat CaSR (Rattus norvegicus, UniProt P48442); conditions: CHO cells; cited from earlier work
T2 construct: host or cells: CHO cells, transient
T2 sequence (P48442 20-1079): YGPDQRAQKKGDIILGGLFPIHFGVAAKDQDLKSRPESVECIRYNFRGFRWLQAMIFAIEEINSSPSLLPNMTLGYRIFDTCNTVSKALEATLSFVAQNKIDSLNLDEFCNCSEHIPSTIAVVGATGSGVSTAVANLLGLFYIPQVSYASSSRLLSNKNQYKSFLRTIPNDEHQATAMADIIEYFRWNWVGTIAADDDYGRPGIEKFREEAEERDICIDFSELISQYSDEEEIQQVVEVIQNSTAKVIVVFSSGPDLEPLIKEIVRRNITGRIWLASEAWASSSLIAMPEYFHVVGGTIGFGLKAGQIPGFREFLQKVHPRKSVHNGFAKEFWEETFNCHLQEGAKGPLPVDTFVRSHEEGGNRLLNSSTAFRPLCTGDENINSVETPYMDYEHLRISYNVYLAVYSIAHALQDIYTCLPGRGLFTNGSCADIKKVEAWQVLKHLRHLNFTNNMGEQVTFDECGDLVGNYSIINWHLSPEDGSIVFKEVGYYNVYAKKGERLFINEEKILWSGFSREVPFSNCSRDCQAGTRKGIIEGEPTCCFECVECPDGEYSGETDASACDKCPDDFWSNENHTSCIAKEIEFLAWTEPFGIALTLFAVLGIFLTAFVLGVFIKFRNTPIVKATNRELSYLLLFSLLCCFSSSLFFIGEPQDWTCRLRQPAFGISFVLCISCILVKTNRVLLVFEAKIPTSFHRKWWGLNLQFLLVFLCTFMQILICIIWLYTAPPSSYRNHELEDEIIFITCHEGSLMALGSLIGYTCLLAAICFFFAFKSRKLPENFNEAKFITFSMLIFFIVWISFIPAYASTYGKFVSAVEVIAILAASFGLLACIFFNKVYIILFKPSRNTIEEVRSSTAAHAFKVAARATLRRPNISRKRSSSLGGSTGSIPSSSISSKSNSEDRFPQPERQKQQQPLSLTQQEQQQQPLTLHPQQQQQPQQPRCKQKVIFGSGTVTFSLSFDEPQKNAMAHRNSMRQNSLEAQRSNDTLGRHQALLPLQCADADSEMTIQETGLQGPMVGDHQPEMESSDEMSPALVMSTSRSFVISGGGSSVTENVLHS

CaSR [2] = biological target: T3, CaSR (Bos taurus, UniProt P35384); conditions: X. laevis oocytes; cited from earlier work
T3 construct: host or cells: X. laevis oocytes
T3 sequence (P35384 20-1085): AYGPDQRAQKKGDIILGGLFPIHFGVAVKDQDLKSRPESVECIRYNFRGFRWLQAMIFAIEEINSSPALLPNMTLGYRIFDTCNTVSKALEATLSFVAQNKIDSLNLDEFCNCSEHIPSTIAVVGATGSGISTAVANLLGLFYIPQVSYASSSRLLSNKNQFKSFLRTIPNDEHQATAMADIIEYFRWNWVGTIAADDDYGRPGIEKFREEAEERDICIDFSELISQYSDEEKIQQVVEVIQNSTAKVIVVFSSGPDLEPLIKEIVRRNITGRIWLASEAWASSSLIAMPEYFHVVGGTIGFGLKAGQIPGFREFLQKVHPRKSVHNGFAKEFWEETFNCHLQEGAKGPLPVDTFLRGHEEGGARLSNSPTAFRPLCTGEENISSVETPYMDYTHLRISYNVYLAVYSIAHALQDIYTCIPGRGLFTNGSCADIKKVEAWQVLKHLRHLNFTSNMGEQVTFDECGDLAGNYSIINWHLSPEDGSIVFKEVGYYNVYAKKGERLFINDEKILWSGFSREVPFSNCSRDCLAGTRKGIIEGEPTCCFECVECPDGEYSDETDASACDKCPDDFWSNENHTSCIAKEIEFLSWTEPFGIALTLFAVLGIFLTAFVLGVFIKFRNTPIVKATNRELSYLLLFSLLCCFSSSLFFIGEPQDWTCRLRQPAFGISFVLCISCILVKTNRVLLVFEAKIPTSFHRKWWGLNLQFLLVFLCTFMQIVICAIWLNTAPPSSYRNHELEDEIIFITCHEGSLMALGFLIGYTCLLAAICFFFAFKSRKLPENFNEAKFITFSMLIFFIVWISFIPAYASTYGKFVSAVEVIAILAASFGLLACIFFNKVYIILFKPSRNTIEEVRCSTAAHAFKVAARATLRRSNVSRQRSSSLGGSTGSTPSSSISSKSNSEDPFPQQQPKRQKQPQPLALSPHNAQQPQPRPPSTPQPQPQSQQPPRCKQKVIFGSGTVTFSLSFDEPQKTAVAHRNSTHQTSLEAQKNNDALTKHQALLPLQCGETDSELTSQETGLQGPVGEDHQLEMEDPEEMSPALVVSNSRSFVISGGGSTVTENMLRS

SMILES: [Mg+2] [Mg^2+, magnesium]
- EC50 (CaSR [1]): 15 to 20 mM
- EC50 relative to that of Ca^2+ (rat CaSR): about twice
- EC50 (CaSR [2]): 10 mM
